According to patent publication US7632811B2, “Analogs of parathyroid hormone” (Societe de Conseils de Recherches et D'Applications …, priority 1995, dated 2009):
Non-standard residues stand in square brackets, D forms with d. Residues, ends and D or L forms follow the SMILES beside them. Cha = N[C@@H](CC1CCCCC1)C(=O)O; Ac6c = NC1(C(=O)O)CCCCC1; Nle = CCCC[C@H](N)C(=O)O; Aib = CC(C)(N)C(=O)O

Target: T1, PTH receptor present on SaOS-2 (human osteosarcoma cells) (Homo sapiens, UniProt Q03431)
T1 construct: host or cells: SaOS-2 human osteosarcoma cells (intact, confluent monolayers)
T1 sequence (Q03431 27-593): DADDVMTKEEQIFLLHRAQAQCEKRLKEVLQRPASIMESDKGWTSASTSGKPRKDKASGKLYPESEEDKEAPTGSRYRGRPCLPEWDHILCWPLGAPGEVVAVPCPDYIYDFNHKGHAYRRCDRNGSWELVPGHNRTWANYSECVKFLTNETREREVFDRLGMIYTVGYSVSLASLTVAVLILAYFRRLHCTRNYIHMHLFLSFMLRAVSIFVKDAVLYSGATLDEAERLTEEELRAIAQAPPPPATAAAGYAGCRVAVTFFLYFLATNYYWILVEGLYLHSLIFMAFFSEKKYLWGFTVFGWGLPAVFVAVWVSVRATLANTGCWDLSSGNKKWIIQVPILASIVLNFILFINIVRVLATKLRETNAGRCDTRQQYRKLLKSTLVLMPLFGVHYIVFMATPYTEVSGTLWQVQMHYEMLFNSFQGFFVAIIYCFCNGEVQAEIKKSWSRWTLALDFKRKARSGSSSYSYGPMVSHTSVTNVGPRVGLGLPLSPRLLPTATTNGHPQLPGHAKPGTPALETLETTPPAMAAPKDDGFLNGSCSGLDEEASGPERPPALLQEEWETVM
Assay: Binding to PTH receptor on SaOS-2 cells (competition with mono-125I-[Nle8,18,Tyr34(3-125I)]bPTH(1-34)NH2)
Settings: Table I, 2 hrs at room temperature, read-out: Kd (half maximal inhibition of binding of mono-125I-[Nle8,18, Tyr34(3-125I)]bPTH(1-34)NH2)
Procedure: A. Binding to PTH Receptor
The peptides of the invention were tested for their ability to bind to the PTH receptor present on SaOS-2 (human osteosarcoma cells). SaOS-2 cells (American Type Culture Collection, Rockville, Md.; ATCC #HTB 85) were maintained in RPMI 1640 medium (Sigma, St. Louis, Mo.) supplemented with 10% fetal bovine serum (FBS) and 2 mM glutamine at 37EC in a humidified atmosphere of 5% CO2 in air. The medium was changed every three or four days, and the cells were subcultured every week by trypsinization.
SaOS-2 cells were maintained for four days until they had reached confluence. The medium was replaced with 5% FBS in RPMI 1640 medium and incubated for 2 hrs at room temperature with 10×10^4 cpm mono-^125I-[Nle^8,18, Tyr^34(3-^125I)]bPTH(1-34)NH2 in the presence of a competing peptides of the invention at various concentrations between 10^−11 M to 10^−4 M. The cells were washed four times with ice-cold PBS and lysed with 0.1 M NaOH, and the radioactivity associated with the cells was counted in a scintillation counter. Synthesis of mono-^125I-[Nle^8,18, Tyr^34(3-^125I)]bPTH(1-34)NH2 was carried out as described in Goldman, M. E., et al., Endocrinol., 123:1468 (1988).
The binding assay was conducted with various peptides of the invention, and the Kd value (half maximal inhibition of binding of mono-^125I-[Nle^8,18, Tyr^34(3-^125I)]bPTH(1-34)NH2) for each peptide was calculated.

Row | Kd [µM] | Structure (SMILES)
1 | 0.03 | CC[C@H](C)[C@H](NC(=O)[C@H](CCC(=O)O)NC(=O)[C@H](CO)NC(=O)[C@@H](NC(=O)[C@@H](N)CO)C(C)C)C(=O)N[C@@H](CCC(N)=O)C(=O)N[C@@H](CC(C)C)C(=O)N[C@@H](CCSC)C(=O)N[C@@H](Cc1c[nH]cn1)C(=O)N[C@@H](CC(N)=O)C(=O)N[C@@H](CC(C)C)C(=O)NCC(=O)N[C@@H](CCCCN)C(=O)N[C@@H](Cc1c[nH]cn1)C(=O)N[C@@H](CC(C)C)C(=O)N[C@@H](CC(N)=O)C(=O)N[C@@H](CO)C(=O)N[C@@H](CCSC)C(=O)N[C@@H](CCC(=O)O)C(=O)N[C@@H](CCCNC(=N)N)C(=O)N[C@H](C(=O)N[C@@H](CCC(=O)O)C(=O)N[C@@H](Cc1c[nH]c2ccccc12)C(=O)N[C@@H](CC(C)C)C(=O)N[C@@H](CCCNC(=N)N)C(=O)N[C@@H](CCCCN)C(=O)N[C@@H](CCCCN)C(=O)N[C@@H](CC(C)C)C(=O)N[C@@H](CCC(N)=O)C(=O)N[C@@H](CC(=O)O)C(=O)N[C@@H](CC1CCCCC1)C(=O)N[C@@H](Cc1c[nH]cn1)C(=O)N[C@@H](CC(N)=O)C(=O)N[C@@H](Cc1ccccc1)C(N)=O)C(C)C [[Cha^31]hPTH(1-34)NH2] (H-SVSEIQLMHNLGKHLNSMERVEWLRKKLQD[Cha]HNF-NH2)
2 | 0.005 | CC[C@H](C)[C@H](NC(=O)[C@H](CCC(=O)O)NC(=O)[C@H](CO)NC(=O)[C@@H](NC(=O)[C@@H](N)CO)C(C)C)C(=O)N[C@@H](CCC(N)=O)C(=O)N[C@@H](CC(C)C)C(=O)N[C@@H](CCSC)C(=O)N[C@@H](Cc1c[nH]cn1)C(=O)N[C@@H](CC(N)=O)C(=O)N[C@@H](CC(C)C)C(=O)NCC(=O)N[C@@H](CCCCN)C(=O)N[C@@H](Cc1c[nH]cn1)C(=O)N[C@@H](CC1CCCCC1)C(=O)N[C@@H](CC(N)=O)C(=O)N[C@@H](CO)C(=O)N[C@@H](CCSC)C(=O)N[C@@H](CCC(=O)O)C(=O)N[C@@H](CCCNC(=N)N)C(=O)N[C@H](C(=O)N[C@@H](CCC(=O)O)C(=O)N[C@@H](Cc1c[nH]c2ccccc12)C(=O)N[C@@H](CC(C)C)C(=O)N[C@@H](CCCNC(=N)N)C(=O)N[C@@H](CCCCN)C(=O)N[C@@H](CCCCN)C(=O)N[C@@H](CC(C)C)C(=O)N[C@@H](CCC(N)=O)C(=O)N[C@@H](CC(=O)O)C(=O)N[C@H](C(=O)N[C@@H](Cc1c[nH]cn1)C(=O)N[C@@H](CC(N)=O)C(=O)N[C@@H](Cc1ccccc1)C(N)=O)C(C)C)C(C)C [[Cha^15]hPTH(1-34)NH2] (H-SVSEIQLMHNLGKH[Cha]NSMERVEWLRKKLQDVHNF-NH2)
3 | 0.1 | CC[C@H](C)[C@H](NC(=O)[C@H](CCC(=O)O)NC(=O)[C@H](CO)NC(=O)[C@@H](NC(=O)[C@@H](N)CO)C(C)C)C(=O)N[C@@H](CCC(N)=O)C(=O)N[C@@H](CC(C)C)C(=O)N[C@@H](CCSC)C(=O)N[C@@H](Cc1c[nH]cn1)C(=O)N[C@@H](CC(N)=O)C(=O)N[C@@H](CC(C)C)C(=O)NCC(=O)N[C@@H](CCCCN)C(=O)N[C@@H](Cc1c[nH]cn1)C(=O)N[C@@H](CC(C)C)C(=O)N[C@@H](CC(N)=O)C(=O)N[C@@H](CO)C(=O)N[C@@H](CCSC)C(=O)N[C@@H](CCC(=O)O)C(=O)N[C@@H](CCCNC(=N)N)C(=O)N[C@H](C(=O)N[C@@H](CCC(=O)O)C(=O)N[C@@H](Cc1c[nH]c2ccccc12)C(=O)N[C@@H](CC1CCCCC1)C(=O)N[C@@H](CCCNC(=N)N)C(=O)N[C@@H](CCCCN)C(=O)N[C@@H](CCCCN)C(=O)N[C@@H](CC(C)C)C(=O)N[C@@H](CCC(N)=O)C(=O)N[C@@H](CC(=O)O)C(=O)N[C@H](C(=O)N[C@@H](Cc1c[nH]cn1)C(=O)N[C@@H](CC(N)=O)C(=O)N[C@@H](Cc1ccccc1)C(N)=O)C(C)C)C(C)C [[Cha^24]hPTH(1-34)NH2] (H-SVSEIQLMHNLGKHLNSMERVEW[Cha]RKKLQDVHNF-NH2)
4 | 0.006 | CCCC[C@H](NC(=O)[C@H](CO)NC(=O)[C@H](CC(N)=O)NC(=O)[C@H](CC(C)C)NC(=O)[C@H](Cc1c[nH]cn1)NC(=O)[C@H](CCCCN)NC(=O)CNC(=O)[C@H](CC1CCCCC1)NC(=O)[C@H](CC(N)=O)NC(=O)[C@H](Cc1c[nH]cn1)NC(=O)[C@H](CCCC)NC(=O)[C@H](CC1CCCCC1)NC(=O)[C@H](CCC(N)=O)NC(=O)[C@@H](NC(=O)[C@H](CCC(=O)O)NC(=O)[C@H](CO)NC(=O)[C@@H](NC(=O)[C@@H](N)CO)C(C)C)[C@@H](C)CC)C(=O)N[C@@H](CCC(=O)O)C(=O)N[C@@H](CCCNC(=N)N)C(=O)N[C@H](C(=O)N[C@@H](CCC(=O)O)C(=O)N[C@@H](Cc1c[nH]c2ccccc12)C(=O)N[C@@H](CC(C)C)C(=O)N[C@@H](CCCNC(=N)N)C(=O)N[C@@H](CCCCN)C(=O)N[C@@H](CCCCN)C(=O)N[C@@H](CC(C)C)C(=O)N[C@@H](CCC(N)=O)C(=O)N[C@@H](CC(=O)O)C(=O)N[C@H](C(=O)N[C@@H](Cc1c[nH]cn1)C(=O)N[C@@H](CC(N)=O)C(=O)N[C@@H](Cc1ccc(O)cc1)C(N)=O)C(C)C)C(C)C [[Cha^7,11, Nle^8,18, Tyr^34]hPTH(1-34)NH2] (H-SVSEIQ[Cha][Nle]HN[Cha]GKHLNS[Nle]ERVEWLRKKLQDVHNY-NH2)

Same assay, conditions: Table II, 2 hrs at room temperature, read-out: Kd (half maximal inhibition of binding of mono-125I-[Nle8,18, Tyr34(3-125I)]bPTH(1-34)NH2)

Row | Kd [µM] | Structure (SMILES)
5 | 0.23 | CC[C@H](C)[C@H](NC(=O)[C@H](CO)NC(=O)[C@H](CCCCN)NC(=O)CNC(=O)[C@H](CCCCN)NC(=O)[C@H](CC(=O)O)NC(=O)[C@H](Cc1c[nH]cn1)NC(=O)[C@H](CC(C)C)NC(=O)[C@H](CC(C)C)NC(=O)[C@H](CCC(N)=O)NC(=O)[C@H](Cc1c[nH]cn1)NC(=O)[C@H](CCC(=O)O)NC(=O)[C@H](CO)NC(=O)[C@@H](NC(=O)[C@H](C)N)C(C)C)C(=O)N[C@@H](CCC(N)=O)C(=O)N[C@@H](CC(=O)O)C(=O)N[C@@H](CC(C)C)C(=O)N[C@@H](CCCNC(=N)N)C(=O)N[C@@H](CCCNC(=N)N)C(=O)N[C@@H](CCCNC(=N)N)C(=O)N[C@@H](CCC(=O)O)C(=O)N[C@@H](CC(C)C)C(=O)N[C@@H](CC(C)C)C(=O)N[C@@H](CCC(=O)O)C(=O)N[C@@H](CCCCN)C(=O)N[C@@H](CC(C)C)C(=O)N[C@@H](CC(C)C)C(=O)N[C@@H](CCC(=O)O)C(=O)NC1(C(=O)N[C@@H](CC(C)C)C(=O)N[C@@H](Cc2c[nH]cn2)C(=O)N[C@H](C(=O)N[C@@H](C)C(N)=O)[C@@H](C)O)CCCCC1 [[Glu^22,25,29, Leu^23,28,31, Lys^26, Ahc^30]hPTHrP(1-34)NH2] (H-AVSEHQLLHDKGKSIQDLRRRELLEKLLE[Ac6c]LHTA-NH2; N-terminus assumed)
6 | 0.06 | CC[C@H](C)[C@H](NC(=O)[C@H](CO)NC(=O)[C@H](CCCCN)NC(=O)CNC(=O)[C@H](CCCCN)NC(=O)[C@H](CC(=O)O)NC(=O)[C@H](Cc1c[nH]cn1)NC(=O)[C@H](CC(C)C)NC(=O)[C@H](CC(C)C)NC(=O)[C@H](CCC(N)=O)NC(=O)[C@H](Cc1c[nH]cn1)NC(=O)[C@H](CCC(=O)O)NC(=O)[C@H](CO)NC(=O)[C@@H](NC(=O)[C@H](C)N)C(C)C)C(=O)N[C@@H](CCC(N)=O)C(=O)N[C@@H](CC(=O)O)C(=O)N[C@@H](CC(C)C)C(=O)N[C@@H](CCCNC(=N)N)C(=O)N[C@@H](CCCNC(=N)N)C(=O)N[C@@H](CCCNC(=N)N)C(=O)N[C@@H](CC1CCCCC1)C(=O)N[C@@H](CC(C)C)C(=O)N[C@@H](CC(C)C)C(=O)N[C@@H](CCC(=O)O)C(=O)N[C@@H](CCCCN)C(=O)NC1(C(=O)N[C@@H](CC(C)C)C(=O)NC(C)(C)C(=O)N[C@@H](CCCCN)C(=O)N[C@@H](CC(C)C)C(=O)N[C@@H](Cc2c[nH]cn2)C(=O)N[C@H](C(=O)N[C@@H](C)C(N)=O)[C@@H](C)O)CCCCC1 [[Cha^22, Leu^23,28,31, Glu^25, Lys^26,30, Ahc^27, Aib^29]hPTHrP(1-34)NH2] (H-AVSEHQLLHDKGKSIQDLRRR[Cha]LLEK[Ac6c]L[Aib]KLHTA-NH2)
